Measured values reported in US12304890B2, “R-type pyridyloxycarboxylic acid, salt and ester derivative thereof, and preparation method therefor, and herbicidal composition and application thereof” (Qingdao Kingagroot Chemical Compound Co., Ltd., priority 2018, dated 2025).

Test system: Monocotyledonous and dicotyledonous weed seeds and main crop seeds
Assay: Post-emergence test experiment, other weeds and crops (Table 4, 1000 g a.i./ha)
Type: in vivo
Conditions: 3 weeks in greenhouse, fresh weight inhibition
Procedure: The above described growth inhibition rate is fresh weight inhibition rate.
Post-emergence test experiment: Monocotyledonous and dicotyledonous weed seeds and main crop seeds (i. e. wheat, corn, rice, soybean, cotton, oilseed, millet and sorghum.) were put into a plastic pot loaded with soil. Then covered with 0.5-2 cm soil, the seeds were allowed to grow in good greenhouse environment. The test plants were treated at 2-3 leaf stage 2 weeks after sowing. The test compounds of the invention were dissolved with acetone respectively, then added with tween-80, and using 1.5 liters per hectare of an emulsible concentrate of methyl oleate as a synergist, and diluted by certain amount of water to certain concentration. The solution was sprayed to the plants with a sprayer.

SMILES | Activity level (growth inhibition rate), Abutilon theophrasti Medic. | Activity level (growth inhibition rate), Galium aparine | Activity level (growth inhibition rate), Monochoria Vaginalis
COC(=O)C(OC)Oc1nc(F)c(Cl)c(N)c1Cl (stereo not drawn) [Compound 2-58] | 5 (Level 5: the growth inhibition rate is greater than 85%) | 5 (Level 5: the growth inhibition rate is greater than 85%) | 5 (Level 5: the growth inhibition rate is greater than 85%)
CN(CCCN)CCCN [Compound 2-19, N,N-bis[aminopropyl]methylamine] | 5 (Level 5: the growth inhibition rate is greater than 85%) | 5 (Level 5: the growth inhibition rate is greater than 85%) | 5 (Level 5: the growth inhibition rate is greater than 85%)
COC(=O)C(CC#N)Oc1nc(F)c(Cl)c(N)c1Cl (stereo not drawn) [Compound 2-60] | 5 (Level 5: the growth inhibition rate is greater than 85%) | 5 (Level 5: the growth inhibition rate is greater than 85%) | 5 (Level 5: the growth inhibition rate is greater than 85%)
COC(=O)C(Oc1nc(F)c(Cl)c(N)c1Cl)C(C)C (stereo not drawn) [Compound 2-35] | 5 (Level 5: the growth inhibition rate is greater than 85%) | 5 (Level 5: the growth inhibition rate is greater than 85%) | 5 (Level 5: the growth inhibition rate is greater than 85%)
COC(=O)C(CN(C)C)Oc1nc(F)c(Cl)c(N)c1Cl (stereo not drawn) [Compound 2-59] | 5 (Level 5: the growth inhibition rate is greater than 85%) | 5 (Level 5: the growth inhibition rate is greater than 85%) | 5 (Level 5: the growth inhibition rate is greater than 85%)
NC(CO)(CO)CO [Compound 2-23, tri(methylol) aminomethane] | 5 (Level 5: the growth inhibition rate is greater than 85%) | 5 (Level 5: the growth inhibition rate is greater than 85%) | 5 (Level 5: the growth inhibition rate is greater than 85%)
COC(=O)[C@H](Oc1nc(F)c(Cl)c(N)c1Cl)c1[nH]ncc1F [Compound 2-68] | 5 (Level 5: the growth inhibition rate is greater than 85%) | 5 (Level 5: the growth inhibition rate is greater than 85%) | 5 (Level 5: the growth inhibition rate is greater than 85%)
CC[C@@H](Oc1nc(F)c(Cl)c(N)c1Cl)C(=O)SC [Compound 2-33] | 5 (Level 5: the growth inhibition rate is greater than 85%) | 5 (Level 5: the growth inhibition rate is greater than 85%) | 5 (Level 5: the growth inhibition rate is greater than 85%)
COC(=O)C(Oc1nc(F)c(Cl)c(N)c1Cl)c1ccccc1 (stereo not drawn) [Compound 2-62] | 5 (Level 5: the growth inhibition rate is greater than 85%) | 5 (Level 5: the growth inhibition rate is greater than 85%) | 5 (Level 5: the growth inhibition rate is greater than 85%)
COC(=O)[C@@H](Oc1nc(F)c(Cl)c(N)c1Cl)c1cccs1 [Compound 2-65] | 5 (Level 5: the growth inhibition rate is greater than 85%) | 5 (Level 5: the growth inhibition rate is greater than 85%) | 5 (Level 5: the growth inhibition rate is greater than 85%)
COC(=O)C(Oc1nc(F)c(Cl)c(N)c1Cl)SC (stereo not drawn) [Compound 2-57] | 5 (Level 5: the growth inhibition rate is greater than 85%) | 5 (Level 5: the growth inhibition rate is greater than 85%) | 5 (Level 5: the growth inhibition rate is greater than 85%)
